Assay results reported in patent US4046765A, “Dihydroquinoline derivatives of antioxidant activity and a process for the preparation thereof” (priority 1971, dated 1977).
Structures can show the parent of a compound that is named as a salt.

Assays:
[1] = in vivo; cited from earlier work
[2] = antioxidant effect on fish-meal samples, oxygen uptake in Warburg apparatus and peroxide number; conditions: 40 g. fish meal + 0.04 g. antioxidant; for oxygen uptake (decrease of O2 pressure): 29° C., Warburg apparatus, control 19.5; for Peroxide Number: calculated for 1 g. of fish meal, after treatment with oxygen, control 7.83
Method: The antioxidant effect of the new substances shown in foodstuffs and nutriments was investigated on fish-meal samples. […] In these experiments the oxygen uptake of fish-meal samples containing the various antioxidants was determined in a Warburg apparatus at 29° C., and the results were compared with those measured on samples containing no antioxidant. The peroxide number of samples treated with oxygen was also determined.

[3] = test system: encephalomalacia of poultries; conditions: compared with EMQ; cited from earlier work
[4] = biological systems, foodstuff mixtures; cited from earlier work
[5] = known antioxidant; cited from earlier work
[6] = 0.56 g./kg., longer period, animals; cited from earlier work
[7] = test system: rats; conditions: 0.50 g./kg., 14 days; cited from earlier work
[8] = solubility; format: physicochemical
[9] = test system: malignant tumors; experiment: appearance of malignant tumors in animals treated with minimum irradiation doses for a long period; format: in vivo; conditions: versus irradiated untreated animals
Source text: Another important and unexpected property of the new substances is that they exert radiosensibilizing effect. […] On the basis of this property, the new compounds can also be used for the potentiating of the effect of irradiation therapy.

[10] = test system: serum cholesterol; experiment: serum cholesterol lowering in rabbits treated with cholesterol; format: in vivo, rabbit; conditions: 1 g. cholesterol per day, XAX 0.06 g./kg. daily, 70 or 105 days
Method: Due to this fact they can also be used for the prophylaxis and treatment of arteriosclerosis. This effect of the new substances was investigated on rabbits treated with 1 g. of cholesterol per day. The animals were treated for 70 or 105 days with daily doses of 0.06 g./kg. of XAX. […] Using the hitherto-known antioxidants, this very favorable and important effect could not be reached at all.

[11] = test system: rats; conditions: rat, in vivo
Source text: (§1) Since the novel compounds are completely nontoxic, they can be used with great advantage in animal husbandry and in the food industry, as well as in therapy. On the basis of the investigations carried out on the acute and chronic toxicity of these new active agents, it can be stated that they are completely free of the disadvantages of the hitherto-known antioxidants mentioned above, first of all as regards their use in therapy.

[12] = test system: rats; experiment: chronic toxicity of XAX, continuous administration to rats; format: in vivo, rat
Source text: as §1

[13] = test system: liver cirrhosis caused by carbon tetrachloride; experiment: prophylactic activity against liver cirrhosis caused by carbon tetrachloride; format: in vivo
[14] = 90 days, versus untreated animals

In the case of `Cc1cc(C(C)(C)C)c(O)c(C(C)(C)C)c1` [BHT], the “teratogeneous effect (anophthalmia)” value [1] is listed as “the appearance of anophthalmia was observed, indicating that the compound exerts a teratogeneous effect”, the “oxygen uptake (decrease of O2 pressure)” value [2] is listed as 16.5 mmHg and the “Peroxide Number” value [2] is listed as 3.42. For the same compound, the “activity in encephalomalacia of poultries versus EMQ” value [3] was “far lower activity than EMQ”.

In the case of `c1ccc(Nc2ccc(Nc3ccccc3)cc2)cc1` [DPPD, N,N'-diphenyl-p-phenylenediamine], the activity as antioxidant [4] is given as “relatively low activity” and the cancer-inducing effect [5] is given as “cancer-inducing effect”.

In the case of `CCOc1ccc2c(c1)C(C)=CC(C)(C)N2` [EMQ, 6-ethoxy-2,2,4-trimethyl-1,2-dihydroquinoline], the “oxygen uptake (decrease of O2 pressure)” value [2] is listed as 23.5 mmHg, the “Peroxide Number” value [2] is listed as 2.87 and the appetite [6] is listed as “may cause appetite lowering”. The gain in weight [6] was “lowers the gain in weight”, the appetite [7] was “the appetite of the animals was lowered” and the “size of the liver” value [7] was “an increase in size of the liver was observed”.

With `CC1=CC(C)(C)Nc2ccc(Cc3ccc4c(c3)C(C)=CC(C)(C)N4)cc21` [Example 8, bis-(2,2,4-trimethyl-1,2-dihydroquinolyl-6)-methane] the “solubility in water and alcohol” value [8] was “well soluble in water and alcohol”.

With `CC1=CC(C)(C)Nc2ccc(Cc3ccc4c(c3)C(C)=CC(C)(C)N4)cc21` [Example 9, bis-(2,2,4-trimethyl-1,2-dihydroquinolyl-6)-methane-dihydrochloride] the “solubility in water and alcohol” value [8] was “soluble in water and alcohol”.

In the case of `CC1=CC(C)(C)Nc2ccc(Cc3ccc4c(c3)C(C)=CC(C)(C)N4)cc21` [XAX, bis-(2,2,4-trimethyl-1,2-dihydroquinolyl-6)-methane], the “oxygen uptake (decrease of O2 pressure)” value [2] is reported as 11.5 mmHg, the “Peroxide Number” value [2] is reported as 1.54 and the “appearance of malignant tumors” value [9] is reported as “could be suppressed”. For the same compound, the “cholesterol level of the blood” value [10] was “the cholesterol level of the blood decreased to a great extent”, the toxic symptoms [11] was “no toxic symptoms” and the “weight gain and blood picture” value [12, 14] was “Neither the weight gain nor the blood picture of the animals was harmfully affected”. For the same compound, the “weight gain of some organs” value [12, 14] was “no excessive weight gain of some organs of the animals could be observed”, the “damaging of tissues or cells” value ([12]; daily 0.25 mg./kg., 3 weeks) was “no damaging of tissues or cells could be observed” and the “prophylactic activity against liver cirrhosis” value [13] was “great prophylactic activity”.

In the case of `CC1=CC(C)(C)Nc2ccc(Cc3ccc4c(c3)C(C)=CC(C)(C)N4)cc21` [sulfuric acid salt of XAX], the “solubility in water and alcohol” value [8] is reported as “soluble in water and alcohol”.
